Measured values published in patent publication US10676440B2, “Crystalline forms of an NK-1 antagonist” (Helsinn Healthcare SA, priority 2014, dated 2020).

Columns and labels:
Format in all cases: physicochemical
[1] = Solid form stability of Form II (ambient storage, humidity, water suspension)
Procedure: Form II was confirmed as a crystalline solid according to XRPD analysis. The XRPD pattern of Form II is shown in FIG. 17 and the peak data is given below in Table 7. […] The red pattern was recorded after storing Form II for 1 h and 20 min under ambient conditions.
Thermogravimetry coupled to Fourier Transform (TGA-FT) measurements taken during the conversion show a loss of trifluoroethanol above 100° C.

[2] = Approximate solubility in water at rt
[3] = Moisture adsorption/desorption (DVS), hygroscopicity
Procedure: Moisture Adsorption/Desorption data was collected on a DVS-1 (SMS Surface Measurements Systems) moisture balance system. The sorption/desorption isotherms were measured stepwise in a range of 0% RH to 90% RH at 25° C. A weight change of <0.002 mg/min was chosen as the criterion to switch to the next level of relative humidity (with a maximum equilibration time of 6 hours if the weight criterion was not met). The data were corrected for the initial moisture content of the samples so that the weight after drying the sample at 0% relative humidity was taken as the zero point. The hygroscopicity of a given substance was characterized, in accordance with the European Phamacopoeia (Technical Guide 1999), by the increase in mass when the relative humidity is raised from 0% RH to 90% RH, as defined below (where weight increase=x):
Slightly hygroscopic: 0.2%≤x<2.0%
Very hygroscopic: x≥15.0%
Deliquescent: Sufficient liquid as adsorbed to form a liquid

[4] = Gravimetric solubility of Form I in solvents
Procedure: Solubility was determined gravimetrically. A weighted sample of Form I was suspended in a defined amount of solvent. After equilibration and solvent-liquid separation, the weight of the saturated liquid was determined. The solvent was then evaporated, the solid residue dried to dryness and weighed. The solubility is reported as weight of solid substance dissolved divided by the weight of the solution.

[5] = Stability of ground and kneaded Form I by XRPD; details: ball milling 10 min
Procedure: An untreated sample of Form I was ground by ball milling in a Retsch MM 200 grinder for 10 min at a frequency of 30 Hz. The sample was then analyzed by XRPD to determine its diffraction pattern. The stability of the ground sample was determined by comparing the diffraction pattern of the ground sample with that of the reference sample. […] In FIG. 26, the XRPD pattern for the Form I reference sample is shown in black and the pattern for the ground sample is shown in blue.
An untreated sample of Form I was ground by ball milling in a Retsch MM 200 grinder for 10 min at a frequency of 30 Hz with a catalytic amount of water. The sample was then analyzed by XRPD to determine its diffraction pattern. The stability of the kneaded sample was determined by comparing the diffraction pattern of the kneaded sample with that of the reference sample. […] In FIG. 27, the XRPD pattern for the Form I reference sample is shown in black and the XRPD pattern for the kneaded sample is shown in red.

In the case of `Cc1ccccc1-c1cc(N2CCN(C)CC2)ncc1N(C)C(=O)C(C)(C)c1cc(C(F)(F)F)cc(C(F)(F)F)c1` [Form II, 2-(3,5-bis(trifluoromethyl)phenyl)-N,2-dimethyl-N-(6-(4-methylpiperazin-1-yl)-4-(o-tolyl)pyridin-3-yl)propanamide], the “conversion at 80% relative humidity” value ([1]; 80% relative humidity) is reported as “convert to Form I”, the “stability under ambient conditions” value ([1]; ambient conditions, XRPD) is reported as “unstable under ambient conditions and converts to Form I” and the “conversion after storing under ambient conditions” value ([1]; stored 1 h and 20 min under ambient conditions, XRPD) is reported as “partial conversion to Form I”. The “conversion upon suspension equilibration in water” value ([1]; suspension equilibration in water) was “convert to Form I”.
With `Cc1ccccc1-c1cc(N2CCN(C)CC2)ncc1N(C)C(=O)C(C)(C)c1cc(C(F)(F)F)cc(C(F)(F)F)c1` [Form III, 2-(3,5-bis(trifluoromethyl)phenyl)-N,2-dimethyl-N-(6-(4-methylpiperazin-1-yl)-4-(o-tolyl)pyridin-3-yl)propanamide] the solubility [2] was under 1000 µg/mL.
For `Cc1ccccc1-c1cc(N2CCN(C)CC2)ncc1N(C)C(=O)C(C)(C)c1cc(C(F)(F)F)cc(C(F)(F)F)c1` [Form I, 2-(3,5-bis(trifluoromethyl)phenyl)-N,2-dimethyl-N-(6-(4-methylpiperazin-1-yl)-4-(o-tolyl)pyridin-3-yl)propanamide], the “Hygroscopicity (weight change 0 to 90%-RH)” value ([3]; 25° C., 0% RH to 90% RH) was 0.1%, the Hygroscopicity classification ([3]; 25° C., 0% RH to 90% RH, European Pharmacopoeia classes) was “non-hygroscopic” and the “weight gain during the drying step and the first adsorption segment” value ([3]; first cycle, likely due to electrostatic charges) was “about 0.3%”. For the same molecule, the “weight loss in the second cycle” value ([3]; second cycle) was 0.1%, the “Solubility (% m/m)” value ([4]; 25° C., 1-Butanol) was over 11.6 % m/m and the “Solubility (% m/m)” value ([4]; 25° C., 2-Butanone) was over 11.2 % m/m. For the same molecule, the “Solubility (% m/m)” value ([4]; 25° C., Acetone) was over 11.1 % m/m, the “Solubility (% m/m)” value ([4]; 25° C., Acetonitrile) was 9 % m/m and the “Solubility (% m/m)” value ([4]; 25° C., Cyclohexane) was 4.2 % m/m. The “Solubility (% m/m)” value ([4]; 25° C., Dichloroethane) was over 7.0 % m/m, the “Solubility (% m/m)” value ([4]; 25° C., Dioxane) was over 9.0 % m/m and the “Solubility (% m/m)” value ([4]; 25° C., Ethanol) was over 11.5 % m/m. The “Solubility (% m/m)” value ([4]; 25° C., Heptane) was 1.2 % m/m, the “Solubility (% m/m)” value ([4]; 25° C., Isopropyl Acetate) was 22.2 % m/m and the “Solubility (% m/m)” value ([4]; 25° C., Methanol) was over 11.9 % m/m. The “Solubility (% m/m)” value ([4]; 25° C., N,N-Dimethylformamide) was over 9.9 % m/m, the “Solubility (% m/m)” value ([4]; 25° C., Tetrahydrofuran) was over 9.9 % m/m and the “Solubility (% m/m)” value ([4]; 25° C., Toluene) was over 10.8 % m/m. For the same molecule, the “Solubility (% m/m)” value ([4]; 25° C., Trifluoroethanol) was over 7.5 % m/m, the “Solubility (% m/m)” value ([4]; 25° C., Water) was under 0.1 % m/m and the “Solubility (% m/m)” value ([4]; 25° C., Water/Acetone 1:2) was 7.0 % m/m. The “Solubility (% m/m)” value ([4]; 25° C., Water/Acetone 2:1) was 0.2 % m/m, the “Solubility (% m/m)” value ([4]; 25° C., Water/Acetonitrile 1:2) was 6.2 % m/m and the “Solubility (% m/m)” value ([4]; 25° C., Water/Acetonitrile 2:1) was 0.5 % m/m. The “Solubility (% m/m)” value ([4]; 25° C., Water/Dioxane 1:2) was 4.9 % m/m, the “Solubility (% m/m)” value ([4]; 25° C., Water/Dioxane 2:1) was 0.1 % m/m and the “Solubility (% m/m)” value ([4]; 25° C., Water/Ethanol 1:2) was 3.1 % m/m. The “Solubility (% m/m)” value ([4]; 25° C., Water/Ethanol 2:1) was 0.1 % m/m, the “Solubility (% m/m)” value ([4]; 25° C., Water/Methanol 1:2) was 1.0 % m/m and the “Solubility (% m/m)” value ([4]; 25° C., Water/Methanol 2:1) was 0.2 % m/m. For the same molecule, the “Solubility (% m/m)” value ([4]; 25° C., Xylene) was 18.4 % m/m, the “Solubility (% m/m)” value ([4]; 60° C., 1-Butanol) was 29.9 % m/m and the “Solubility (% m/m)” value ([4]; 60° C., 2-Butanone) was over 52.6 % m/m. For the same molecule, the “Solubility (% m/m)” value ([4]; 60° C., 2-Propanol) was 26.2 % m/m, the “Solubility (% m/m)” value ([4]; 60° C., Acetone) was over 53.3 % m/m and the “Solubility (% m/m)” value ([4]; 60° C., Acetonitrile) was 14.4 % m/m. For the same molecule, the “Solubility (% m/m)” value ([4]; 60° C., Cyclohexane) was 16.0 % m/m, the “Solubility (% m/m)” value ([4]; 60° C., Dichloroethane) was 34.7 % m/m and the “Solubility (% m/m)” value ([4]; 60° C., Dioxane) was over 41.6 % m/m. For the same molecule, the “Solubility (% m/m)” value ([4]; 60° C., Ethanol) was 33.1 % m/m, the “Solubility (% m/m)” value ([4]; 60° C., Ethyl Acetate) was 45.9 % m/m and the “Solubility (% m/m)” value ([4]; 60° C., Heptane) was 3.0 % m/m. The “Solubility (% m/m)” value ([4]; 60° C., Isopropyl Acetate) was over 35.0 % m/m, the “Solubility (% m/m)” value ([4]; 60° C., Methanol) was 48.4 % m/m and the “Solubility (% m/m)” value ([4]; 60° C., N,N-Dimethylformamide) was 40.7 % m/m. For the same molecule, the “Solubility (% m/m)” value ([4]; 60° C., Tetrahydrofuran) was over 50.4 % m/m, the “Solubility (% m/m)” value ([4]; 60° C., Toluene) was 48.8 % m/m and the “Solubility (% m/m)” value ([4]; 60° C., Trifluoroethanol) was over 39.1 % m/m. For the same molecule, the “Solubility (% m/m)” value ([4]; 60° C., Water) was under 0.1 % m/m, the “Solubility (% m/m)” value ([4]; 60° C., Water/Acetone 1:2) was 11.7 % m/m and the “Solubility (% m/m)” value ([4]; 60° C., Water/Acetone 2:1) was under 0.1 % m/m. The “Solubility (% m/m)” value ([4]; 60° C., Water/Acetonitrile 1:2) was 6.4 % m/m, the “Solubility (% m/m)” value ([4]; 60° C., Water/Acetonitrile 2:1) was under 0.1 % m/m and the “Solubility (% m/m)” value ([4]; 60° C., Water/Dioxane 1:2) was 21.1 % m/m. The “Solubility (% m/m)” value ([4]; 60° C., Water/Dioxane 2:1) was under 0.1 % m/m, the “Solubility (% m/m)” value ([4]; 60° C., Water/Ethanol 1:2) was 5.5 % m/m and the “Solubility (% m/m)” value ([4]; 60° C., Water/Ethanol 2:1) was under 0.1 % m/m. For the same molecule, the “Solubility (% m/m)” value ([4]; 60° C., Water/Methanol 1:2) was 0.4 % m/m, the “Solubility (% m/m)” value ([4]; 60° C., Water/Methanol 2:1) was under 0.1 % m/m and the “Solubility (% m/m)” value ([4]; 60° C., Xylene) was over 35.0 % m/m. For the same molecule, the “stability of the ground sample (XRPD vs reference)” value ([5]; 30 Hz) was “loss of crystallinity” and the “stability of the kneaded sample (XRPD vs reference)” value ([5]; 30 Hz with a catalytic amount of water) was “increased degree of crystallinity”.
